Results taken from patent US12371438B2, “Ginkgolide B derivative and salt thereof, preparation method therefor and use thereof” (HUILING JINXIN (SHANGHAI) PHARMACEUTICAL TECHNOLOGY CO., LTD, priority 2019, dated 2025).
Entries after “also recorded” stand apart in the source; their conditions may differ. Like-named read-outs stand apart in the source and are kept apart here.

Experiments:
platelet aggregation = experiment: In vitro anti-platelet aggregation activity evaluation (PAF-induced, platelet-rich plasma); format: cell-based, New Zealand white rabbits; conditions: for inhibitory effect on platelet aggregation in vitro (in words): 1 μM, compared with Ginkgolide B; for activity at 1 µM: Oryctolagus cuniculus, Platelet, read-out: Platelet aggregation rate (%, 1 μM)
Experimental: Experimental method: New Zealand white rabbits were anesthetized with sodium pentobarbital (2%, 2 mL/kg), about 40 mL of blood was obtained by abdominal aortic puncture, and the supernatant was collected as platelet-rich serum (PRP) after centrifugation at 1000 rpm/min for 10 min, the remaining blood was centrifuged at 4000 rpm/min for 10 min, and the supernatant was collected as platelet-poor serum (PPP); blank control group: 100 μL PRP+100 μL normal saline; drug group: 100 μL PRP+100 μL 0.05% DMSO dissolved drug (Ginkgolide B was positive control group), and the final drug concentration was 1 μM.

[1] = test system: platelet aggregation in SD rats; experiment: Anticoagulant activity in SD rats (ADP-induced maximum platelet aggregation rate after gavage); format: in vivo; conditions: for Average maximum platelet aggregation rate (%): 50 mg/kg by gavage once a day for 3 days, ADP inducer, PAGM within 5 min; for anti-aggregation activity on platelet aggregation in SD rats (in words): 50 mg/kg, n=10, compared with Ginkgolide B
Experimental: Experimental method: Rats were randomly divided into 10 rats in each group, and each group was given the corresponding test drug (50 mg/kg) by gavage after weighing, once a day for 3 days.
150 μL of PRP in each group was sucked and added to the 96-well plate (adjusted to zero by PPP), and ADP inducer was added, the absorbance value A1 was measured at the wavelength of 650 nm in the microplate reader, which was the absorbance value of each group at 0 min; the oscillation mode of the microplate reader was turned on, and the absorbance value A2 was detected again after 5 min, which was the absorbance value of each group at 5 min. Since the addition of ADP would cause platelet aggregation and change the light permeability, the maximum platelet aggregation rate (PAGM) within 5 min was measured according to this principle. Maximum platelet aggregation rate(PAGM)=(A1−A2)/A1×100

[2] = test system: acute cerebral ischemia in SD rats; experiment: Anti-acute cerebral ischemia activity (middle cerebral artery electrocoagulation, TTC staining); format: in vivo
Experimental: At this time, a relatively straight blood vessel with few branches can be seen through the dura mater, that is, the middle cerebral artery. […] The temporal muscle and skin were sutured in turn, and then the rat was administered by gavage (50 mg/kg). After the rats were awakened, they were put back into their cages and continued to be reared for 24 h.
The brain slices were stained in 1% TTC dye solution (incubated at 37° C. in the dark for about 5-10 min), the infarcted area of brain slices after staining was white, while the non-infarcted area was rose red; after staining was completed, the brain slices were moved to 10% formaldehyde solution and kept away from light for 24 hours, finally, a digital camera was used to take pictures, the areas of frontal and reverse infarcted areas and non-infarcted areas were measured by image analysis software (ImageJ, version: 1.4.3.67), and the ratio of infarcted areas in the total infarcted cerebral hemisphere was calculated.

[3] = 1 μM drug, PAF-induced, rabbit PRP, corrected to blank = 100, n=5
[4] = SD rats, 50 mg/kg by gavage after occlusion, 24 h, n=10
[5] = SD rats, 50 mg/kg, n=10, compared with model group / Ginkgolide B, 50 mg/kg
[6] = SD rats, 50 mg/kg by gavage after occlusion, 24 h, n=10, 50 mg/kg

Molecule | Platelet aggregation rate (%, 1 μM) (platelet aggregation; [3]) [%] | inhibitory effect on platelet aggregation in vitro (in words) (platelet aggregation) | Average maximum platelet aggregation rate (%) ([1]; n=10) | other results
2-(Ginkgolide B-10-oxy) n-pentylamine Acetate [Embodiment 17] | 21.90 | significant activity | 34.20 | Average area ratio of hemicerebral infarction (%) [2, 4]: 25.31%
2-(Ginkgolide B-10-oxy) pyrrolidine Acetate [Embodiment 18] | 26.45 |  |  | 
2-(Ginkgolide B-10-oxy)ammonium Acetate [Embodiment 11] | 56.53 |  |  | 
2-(Ginkgolide B-10-oxy)arginine Acetate [Embodiment 13] | 15.66 | significant activity | 21.25 | anti-aggregation activity on platelet aggregation in SD rats (in words) [1]: particularly significant (P<0.001); Average area ratio of hemicerebral infarction (%) [2, 4]: 20.14%; activity for reducing the area ratio of hemicerebral infarction in SD rats (in words) [2, 5]: particularly significant (P<0.001)
2-(Ginkgolide B-10-oxy)diethylamine Acetate [Embodiment 16] | 28.87 |  |  | 
2-(Ginkgolide B-10-oxy)histidine Acetate [Embodiment 14] | 19.74 | significant activity | 26.82 | anti-aggregation activity on platelet aggregation in SD rats (in words) [1]: particularly significant (P<0.001); Average area ratio of hemicerebral infarction (%) [2, 4]: 17.98%; activity for reducing the area ratio of hemicerebral infarction in SD rats (in words) [2, 5]: particularly significant (P<0.001)
2-(Ginkgolide B-10-oxy)lysine Acetate [Embodiment 12] | 12.23 | significant activity | 22.65 | anti-aggregation activity on platelet aggregation in SD rats (in words) [1]: particularly significant (P<0.001); Average area ratio of hemicerebral infarction (%) ([2]; rat, in vivo, 50 mg/kg): 18.83%; activity for reducing the area ratio of hemicerebral infarction in SD rats (in words) ([2]; rat, in vivo, 50 mg/kg): particularly significant (P<0.001); also recorded: significantly better than Ginkgolide B and embodiment 10
2-(Ginkgolide B-10-oxy)morpholine Acetate [Embodiment 19] | 35.77 |  |  | 
2-(Ginkgolide B-10-oxy)triethylamine Acetate [Embodiment 15] | 24.65 |  |  | 
2-(Ginkgolide B-10-oxyethoxy)N-methyl-D-glucosamine Acetate [Embodiment 21] | 18.64 | significant activity | 29.35 | Average area ratio of hemicerebral infarction (%) [2, 4]: 22.66%
2-(Ginkgolide B-10-oxyethoxy)sodium Acetate [Embodiment 20] | 45.32 |  |  | 
COC(=O)CO[C@H]1C(=O)O[C@H]2O[C@]34C(=O)OC5C[C@@H](C(C)(C)C)C21[C@@]53[C@@H](O)[C@@H]1OC(=O)C(C)[C@@]14O (some centres unmarked) [Embodiment 1, 10-O-(methoxyformylmethyl) Ginkgolide B] |  |  |  | activity at 1 µM (platelet aggregation): 30%
COC(=O)/C=C/CO[C@H]1C(=O)O[C@H]2O[C@]34C(=O)OC5C[C@@H](C(C)(C)C)C21[C@@]53[C@@H](O)[C@@H]1OC(=O)C(C)[C@@]14O (some centres unmarked) [Embodiment 2, 10-O-(methoxyformylallyl) Ginkgolide B] |  | significant activity | 32.60 | activity at 1 µM (platelet aggregation): 10.3%; Average area ratio of hemicerebral infarction (%) [2, 4]: 21.56%
CC1C(=O)O[C@H]2[C@H](O)[C@@]34C5C[C@@H](C(C)(C)C)C36[C@@H](OC(=O)[C@@H]6OCC(=O)OC(C)(C)C)O[C@@]4(C(=O)O5)[C@@]12O (some centres unmarked) [Embodiment 3, 10-O-(tert-butoxyformylmethyl) Ginkgolide B] |  |  |  | activity at 1 µM (platelet aggregation): 26.1%
COC(=O)COCCO[C@H]1C(=O)O[C@H]2O[C@]34C(=O)OC5C[C@@H](C(C)(C)C)C21[C@@]53[C@@H](O)[C@@H]1OC(=O)C(C)[C@@]14O (some centres unmarked) [Embodiment 4, 10-O-(methoxyformylmethoxyethyl) Ginkgolide B] |  |  |  | activity at 1 µM (platelet aggregation; [3]): 46.7%
COC(=O)COCCOCCO[C@H]1C(=O)O[C@H]2O[C@]34C(=O)OC5C[C@@H](C(C)(C)C)C21[C@@]53[C@@H](O)[C@@H]1OC(=O)C(C)[C@@]14O (some centres unmarked) [Embodiment 5, 10-O-(methoxyformylmethoxyethoxyethyl) Ginkgolide B] |  |  |  | activity at 1 µM (platelet aggregation): 39.3%
CC1C(=O)O[C@H]2[C@H](O)[C@@]34C5C[C@@H](C(C)(C)C)C36[C@@H](OC(=O)[C@@H]6OC/C=C/C(=O)O)O[C@@]4(C(=O)O5)[C@@]12O (some centres unmarked) [Embodiment 6, 4-(Ginkgolide B-10-oxy)-2-butenoic Acid] |  |  |  | activity at 1 µM (platelet aggregation; [3]): 45.7%
CC1C(=O)O[C@H]2[C@H](O)[C@@]34C5C[C@@H](C(C)(C)C)C36[C@@H](OC(=O)[C@@H]6OCC(=O)O)O[C@@]4(C(=O)O5)[C@@]12O (some centres unmarked) [Embodiment 7, 2-(Ginkgolide B-10-oxy)acetic Acid] | 17.66 | significant activity |  | Average maximum platelet aggregation rate (%) ([1]; n=10, 50 mg/kg): 35.20%; Average area ratio of hemicerebral infarction (%) [2, 6]: 25.14%
CC1C(=O)O[C@H]2[C@H](O)[C@@]34C5C[C@@H](C(C)(C)C)C36[C@@H](OC(=O)[C@@H]6OCCOCC(=O)O)O[C@@]4(C(=O)O5)[C@@]12O (some centres unmarked) [Embodiment 8, 2-(Ginkgolide B-10-oxyethoxy)acetic Acid] |  |  |  | activity at 1 µM (platelet aggregation; [3]): 23.7%
CC1C(=O)O[C@H]2[C@H](O)[C@@]34C5C[C@@H](C(C)(C)C)C36[C@@H](OC(=O)[C@@H]6OCCOCCOCC(=O)O)O[C@@]4(C(=O)O5)[C@@]12O (some centres unmarked) [Embodiment 9, 2-(Ginkgolide B-10-oxyethoxyethoxy)acetic Acid] |  |  |  | activity at 1 µM (platelet aggregation; [3]): 35%
CC1C(=O)O[C@H]2[C@H](O)[C@@]34C5C[C@@H](C(C)(C)C)C36[C@@H](OC(=O)[C@@H]6OCC(=O)O)O[C@@]4(C(=O)O5)[C@@]12O (some centres unmarked) [Embodiment 10, 2-(Ginkgolide B-10-oxy)sodium Acetate] | 39.34 |  |  | Average maximum platelet aggregation rate (%) ([1]; n=10, 50 mg/kg): 42.20%; Average area ratio of hemicerebral infarction (%) [2, 6]: 29.61%
CC1C(=O)OC2C(O)C34C5CC(C(C)(C)C)C36C(OC(=O)C6O)OC4(C(=O)O5)C12O (centres unmarked) [Ginkgolide B] | 63.42 |  | 39.57 | Average area ratio of hemicerebral infarction (%) [2, 4]: 26.12%
